Experimental data taken from patent US20220249413A1, “SWELL 1 MODULATORS FOR TREATMENT OF NON-ALCOHOLIC FATTY LIVER DISEASE, IMMUNE DEFICIENCIES, MALE INFERTILITY AND VASCULAR DISEASES” (priority 2019, published 2022).

Assays:
SWELL1 protein = SWELL1 protein expression by Western blot in 3T3-F442A preadipocytes and adipocytes; format: cell-based; settings: 10 μM applied for 96 hours
Method: (§1) For Smod1 (DCPIB) mediated induction of SWELL1 and insulin signaling studies in 3T3-F442A preadipocytes, the cells were incubated with either vehicle (DMSO) or 10 μM Smod1 for 96 h. The cells were serum starved for 6 h (+DMSO or Smod1) and stimulated with 0, 3 and 10 nM insulin containing media (−DMSO or Smod1), as described above for 15 mins and the lysates were collected. In the case of 3T3-F442A adipocytes, the WT and KO cells were treated with either vehicle (DMSO) or 10 μM Smod1 following 7-11 days of differentiation for 96 h and then stimulated with 0 and 10 nM insulin for 15 min, as described above. Human embryonic kidney (HEK) cells were cultured and maintained in 90% DMEM (25 mM D-Glucose and 4 mM L-Glutamine) containing 10% fetal bovine serum (FBS) and 100 IU penicillin and 100 μg/ml streptomycin media.
Electrophysiology Patch-clamp recordings of β-cells and mature adipocytes were performed as described previously (Zhang et al., Nat Cell Biol, 19, 504-517, 2017; Kang et al., Nature Communications, 9, 367, 2018). 3T3-F442A WT and KO preadipocytes were prepared as described in the Cell culture section above. […] Recordings were measured using Axopatch 200B amplifier paired to a Digidata 1550 digitizer using pClamp 10.4 software. […] The images were further analyzed for band intensities using ImageJ software. […]

[1] = test system: insulin-AKT2-AS160 signaling; test: Insulin-stimulated pAKT2/pAS160 signaling in 3T3-F442A cells (Western blot); format: cell-based
Method: as §1
Electrophysiology Patch-clamp recordings of β-cells and mature adipocytes were performed as described previously (Zhang et al., Nat Cell Biol, 19, 504-517, 2017; Kang et al., Nature Communications, 9, 367, 2018). 3T3-F442A WT and KO preadipocytes were prepared as described in the Cell culture section above. For SWELL1 overexpression recordings, preadipocytes were first transduced with Ad5-CAG-LoxP-stop-LoxP-3× Flag-SWELL1 (MOI 12) in 2% FBS culture medium for two days and then overexpression induced by adding Ad5-CMV-Cre-wt-IRES-eGFP (MOI 10-12) in 2% FBS culture medium for two more days and changed to 10% FBS containing culture media and were selected based on GFP expression (˜2-3 days). For 3-cell recordings, islets were transduced with Ad-RIP2-GFP and then dispersed after 48-72 hours for patch-clamp experiments. GFP+ cells marked […] selected for patch-clamp recordings. Recordings were measured using Axopatch 200B amplifier paired to a Digidata 1550 digitizer using pClamp 10.4 software. The extracellular buffer composition for hypotonic stimulation contains 90 mM NaCl, 2 mM CsCl, 1 mM MgCl2, 1 mM CaCl2), 10 mM HEPES, 10 mM Mannitol, pH 7.4 with NaOH (210 mOsm/kg). […] The images were further analyzed for band intensities using ImageJ software. […]

[2] = Traced hyperinsulinemic euglycemic clamp in KKA^y mice; format: in vivo, mouse
[3] = NAFLD assessment: liver weight, histology, triglycerides, NAS in HFD mice; format: in vivo, mouse; settings: HFD mice treated chronically and intermittently over 21 weeks
Method: Liver isolation, triglycerides and histology HFD mice treated with either vehicle or Smod1 were anesthesized with […] followed by cervical dislocation. Gross liver weights were measured and identical sections from right medial lobe of liver were dissected for further examinations. Total triglyceride content was determined by homogenizing 10-50 mg of tissue in 1.5 ml of chloroform:methanol (2:1 v/v) and centrifuged at 12000 rpm for 10 mins at 4° C. An aliquot, 20 ul, was evaporated in a 1.5 ml microcentrifuge tube for 30 mins. Triglyceride content was determined by adding 100 μl of Infinity Triglyceride Reagent (Fisher Scientific) to the dried sample followed by 30 min incubation at RT. The samples were then transferred to a 96 well plate along with standards (0-2000 mg/dl) and absorbance was measured at 540 nm and the final concentration was determined by normalizing to tissue weight. For histological examination, liver sections were fixed in 10% zinc formalin and paraffin embedded for sectioning. Haematoxylin and eosin (H&E) stained sections were then assessed for steatosis grade, lobular inflammation and hepatocyte ballooning for non-alcoholic fatty liver disease (NAFLD) scoring as described (Kleiner et al., Hepatology, 41, 1313-1321, 2005; Liang et al., PLoS One, 9, e115922, 2014; Rauckhorst et al., Mol Metab, 6, 1468-1479, 2017).

In the case of `CCCCC1(C2CCCC2)Cc2cc(OCCCC(=O)O)c(Cl)c(Cl)c2C1=O` (stereo not shown) [Smod1, 4-[(2-Butyl-6,7-dichloro-2-cyclopentyl-2,3-dihydro-1-oxo-1H-inden-5-yl)oxy]butanoic acid], the “increase of SWELL1 protein expression” value (SWELL1 protein; 3T3-F442A adipocytes) is reported as 1.5 fold, the “increase of SWELL1 protein expression” value (SWELL1 protein; 3T3-F442 preadipocytes) is reported as “β” and the “effects on insulin-AKT2-AS160 signaling in SWELL1 KO” value ([1]; SWELL1 KO 3T3-F442A adipocytes) is reported as “absent”. For the same molecule, the “insulin-stimulated pAS160” value ([1]; WT 3T3-F442A adipocytes, 10 μM for 96 h) was “enhanced”, the “insulin-stimulated pAKT2” value ([1]; WT 3T3-F442A preadipocytes/adipocytes, 10 μM for 96 h) was “enhanced” and the “glucose-infusion rate (GIR) to maintain euglycemia” value ([2]; KKA^y mice, 5 mg/kg for 4 days) was 33.58 ± 3.4 mg/kg/min. For the same molecule, the “reduction of hepatic glucose production (Ra)” value ([2]; KKA^y mice, baseline (basal)) was ~1.6 fold, the “suppression of hepatic glucose production (Ra)” value ([2]; KKA^y mice, during glucose/insulin infusion (clamp)) was 4.8 fold and the “enhancement of insulin stimulated 2-DG uptake” value ([2]; brown fat, skeletal muscle, KKA^y mice) was “not in brown fat, or skeletal muscle”. For the same molecule, the “insulin stimulated 2-DG uptake” value ([2]; inguinal white adipose tissue (iWAT), KKA^y mice) was 7.0 ± 0.78 nmol/min/g, the glucose-incorporation into glycogen ([2]; liver, adipose and skeletal muscle) was “markedly increased” and the “insulin stimulated 2-DG uptake” value ([2]; myocardium (Heart), KKA^y mice) was 451.3 ± 24.63 nmol/min/g. The “hepatic steatosis on histology” value [3] was “marked reduction”, the liver triglycerides [3] was “marked reduction” and the liver weights ([3]; 5 mg/kg i.p.) was “marked reduction”. For the same molecule, the “NAFLD activity score (NAS)” value ([3]; vs vehicle) was “significantly improved”.
